In ChEMBL document CHEMBL5316270 (J Med Chem, 2023) one finds IC50, Activity and inhibition data, which are given here for nine compounds.

Activity calls are given as the source filed them. No cut-off for these calls is given here.

The IC50 is the midpoint of a concentration-inhibition curve. Higher therefore signals a need for much substance.

Data set [1] deals with T1, mTORC1 (Homo sapiens, UniProt P42345+Q8N122+Q9BVC4). Format: cell-based, MDA-MB-468.
The target in data set [2] is T1, mTORC1. Format: cell-based, MDA-MB-468. This is another data set of the same source.
Another data set can be described thus: cells. The settings on record: Homo sapiens, MDA-MB-468. Format: cell-based.
For data set [3], the system named is NCI-H2122. The experiment in a line: Antitumor activity against human NCI-H2122 cells harboring KRAS G12C mutation xenografted in Balb/c nude mouse assessed as reduction in tumor volume at 100 mg/kg,ip qd by caliper measurement analysis. Format: functional, organism-based. (Xenograft models place foreign cells or tissue in a host animal.)
Data set [4] concerns NCI-H2122. The experiment in a line: Antitumor activity against human NCI-H2122 cells harboring KRAS G12C mutation xenografted in Balb/c nude mouse assessed as reduction in tumor volume at 100 mg/kg,ip qd co-treated with RMC-627 at 10 mg/kg,ip qw by caliper measurement analysis. Format: functional, organism-based.
The nature of data set [5]: Toxicity in Balb/c nude mouse xenografted with human NCI-H2122 cells harboring KRAS G12C mutation assessed as body weight loss at 100 mg/kg,ip qd co-treated with RMC-627 at 10 mg/kg,ip qw. It counts as organism-based. The settings on record: in vivo.
For data set [6], the system named is NCI-H2122. In words: Antitumor activity against human NCI-H2122 cells harboring KRAS G12C mutation xenografted in Balb/c nude mouse assessed as induction of apoptosis by measuring caspase-3 level at 100 mg/kg,ip qd co-treated with RMC-627 at 10 mg/kg,ip qw by immunostaining based microscopy. It counts as functional, organism-based.
Data set [7] has as its system NCI-H2122. The experiment in a line: Antitumor activity against human NCI-H2122 cells harboring KRAS G12C mutation xenografted in Balb/c nude mouse assessed as induction of apoptosis by measuring caspase-3 level at 100 mg/kg,ip qd by immunostaining based microscopy. It counts as functional, organism-based.
For data set [8], the system named is Mus musculus. In words: In vivo inhibition of mTORC1 in human MCF7 cells harboring PIK3CA […] mutation xenografted in Balb/c nude mouse assessed as inhibition of tumor p4EBP1 level at 5 mg/kg,po and measured upto 48 hrs by MSD analysis. Format: functional, organism-based.
In data set [9] the test system is Mus musculus. In words: In vivo inhibition of mTORC1 in human MCF7 cells harboring PIK3CA […] mutation xenografted in Balb/c nude mouse assessed as inhibition of tumor p4EBP1 level at 1 mg/kg,ip and measured at 4 hrs by MSD analysis. Format: functional, organism-based.
The subject of data set [10] is Mus musculus. The experiment in a line: In vivo inhibition of mTORC1 in human MCF7 cells harboring PIK3CA […] mutation xenografted in Balb/c nude mouse assessed as inhibition of tumor p4EBP1 level at 1 mg/kg,ip and measured after 24 hrs by MSD analysis. Format: functional, organism-based.

Take `CO[C@H]1C[C@@H]2CC[C@@H](C)[C@@](O)(O2)C(=O)C(=O)N2CCCC[C@H]2C(=O)O[C@H]([C@H](C)C[C@@H]2CC[C@@H](OC(=O)NCCOCCOCCOCCOCCOCCOCCOCCOCCC(=O)NCCCCn3nc(-c4ccc5oc(N)nc5c4)c4c(N)ncnc43)[C@H](OC)C2)C[C@@H](OC)[C@H](C)/C=C(\C)[C@@H](O)[C@@H](OC)C(=O)[C@H](C)C[C@H](C)/C=C/C=C/C=C/1C`: the figures for the IC50 at mTORC1 [1], against mTORC1 [2] and in the data set “cells” were 0.49 nM, 1.4 nM and 8.4 nM, respectively.

Take `C=CC(=O)N1CCN(c2nc(=O)n(-c3c(C)ccnc3C(C)C)c3nc(-c4c(O)cccc4F)c(F)cc23)[C@@H](C)C1` [SOTORASIB]: the outcome in the data set on NCI-H2122 [3] and in the data set on NCI-H2122 [7] was inactive. In addition, the result in the data set on NCI-H2122 [4] and with NCI-H2122 [6] was Active. In data set [5], the Activity entry is “Non-Toxic”.

Consider `CO[C@H]1C[C@@H]2CC[C@@H](C)[C@@](O)(O2)C(=O)C(=O)N2CCCC[C@H]2C(=O)O[C@H]([C@H](C)C[C@@H]2CC[C@@H](OC(=O)NCCOCCOCCOCCOCCOCCOCCOCCOCCC(=O)NCCS(=O)(=O)c3ccc(C(=O)N4CCOc5ccc(-c6ccc(N)nc6)cc5C4)c(C)c3F)[C@H](OC)C2)C[C@@H](O)[C@H](C)/C=C(\C)[C@@H](O)[C@@H](OC)C(=O)[C@H](C)C[C@H](C)/C=C/C=C/C=C/1C`, for which the IC50 stood at 0.19 nM against mTORC1 [1], 0.97 nM against mTORC1 [2] and 35 nM in the data set “cells”.

In the case of `CO[C@H]1C[C@@H]2CC[C@@H](C)[C@@](O)(O2)C(=O)C(=O)N2CCCC[C@H]2C(=O)O[C@H]([C@H](C)C[C@@H]2CC[C@@H](OC(=O)NCCOCCOCCOCCOCCOCCOCCOCCOCCC(=O)N3CCc4cc(Cn5nc(-c6ccc7oc(N)nc7c6)c6c(N)ncnc65)ccc4C3)[C@H](OC)C2)C[C@@H](O)[C@H](C)/C=C(\C)[C@@H](O)[C@@H](OC)C(=O)[C@H](C)C[C@H](C)/C=C/C=C/C=C/1C` [RMC-5552], the IC50 is 0.17 nM on mTORC1 [1], 1.6 nM against mTORC1 [2] and 35 nM in “cells”.

As to `CO[C@H]1C[C@@H]2CC[C@@H](C)[C@@](O)(O2)C(=O)C(=O)N2CCCC[C@H]2C(=O)O[C@H]([C@H](C)C[C@@H]2CC[C@@H](OCCO)[C@H](OC)C2)CC(=O)[C@H](C)/C=C(\C)[C@@H](O)[C@@H](OC)C(=O)[C@H](C)C[C@H](C)/C=C/C=C/C=C/1C` [EVEROLIMUS], on mTORC1 [2], the IC50 was more than 1000 nM. Further, the inhibition entry in the data set with Mus musculus [8] was “inactive”.

Turning to `CC(C)n1nc(-c2cc3cc(O)ccc3[nH]2)c2c(N)ncnc21`, the IC50 in “cells” is 38 nM.

Turning to `CO[C@H]1C[C@@H]2CC[C@@H](C)[C@@](O)(O2)C(=O)C(=O)N2CCCC[C@H]2C(=O)O[C@H]([C@H](C)C[C@@H]2CC[C@@H](OC(=O)NCCOCCOCCOCCOCCOCCOCCOCCOCCC(=O)NCCCCn3nc(-c4ccc5oc(N)nc5c4)c4c(N)ncnc43)[C@H](OC)C2)C[C@@H](O)[C@H](C)/C=C(\C)[C@@H](O)[C@@H](OC)C(=O)[C@H](C)C[C@H](C)/C=C/C=C/C=C/1C`, the IC50 was 0.24 nM at mTORC1 [1], 1.3 nM at mTORC1 [2] and 13 nM in the data set “cells”.

As to `CC(C)n1nc(-c2ccc3oc(N)nc3c2)c2c(N)ncnc21`, the inhibition entry with Mus musculus [9] was “Active”. The inhibition entry in the data set with Mus musculus [10] is “inactive”.

For `CO[C@H]1C[C@@H]2CC[C@@H](C)[C@@](O)(O2)C(=O)C(=O)N2CCCC[C@H]2C(=O)O[C@H]([C@H](C)C[C@@H]2CC[C@@H](OCCCCc3cn(CCOCCOCCOCCOCCOCCOCCOCCOCCC(=O)NCCCCn4nc(-c5ccc6oc(N)nc6c5)c5c(N(C)C)ncnc54)nn3)[C@H](OC)C2)CC(=O)[C@H](C)/C=C(\C)[C@@H](O)[C@@H](OC)C(=O)[C@H](C)C[C@H](C)/C=C/C=C/C=C/1C`, the IC50 against mTORC1 [2] is more than 1000 nM.
